# Assay results reported in US9260504B2, “N- and C-terminal substituted antagonistic analogs of GH-RH” (University of Miami, priority 2008, dated 2016).
# Marks after values point to notes of the source that are not given here.
# Tests used:
# Format in all cases: in vivo
# [1] = system: PC-3 human hormone-independent prostate cancer; assay: PC-3 human prostate cancer xenografts in nude mice, Experiment 1; conditions: 10 μg/day s.c., daily for 35 days; means±S.E.
# Protocol: (§1) Male nude mice were implanted s.c. with 3 mm^3 pieces of PC-3 human hormone-independent prostate cancer tissue on both flanks. When tumors reached a volume of approx. 50 mm^3, the mice were divided into 4 experimental groups with 8 to 10 animals in each group and received single daily injections for 35 days as follows: 1. Control (vehicle solution); 2. JMR-132 (10 μg/day s.c.); 3. Peptide 1109 (10 μg/day s.c.); 4. Peptide 11111 (10 μg/day s.c.); Tumor volumes were measured once a week. The experiment was ended on day 35 by sacrificing the mice under Isoflurane anesthesia. Resulting tumors were cleaned, weighed, and snap-frozen until further analyses. Statistical analyses of the measurement results were done by two-tailed t-test, p<0.05 being considered significant. Data are presented as the means±S.E.
# [2] = system: PC-3 human hormone-independent prostate cancer; assay: PC-3 human prostate cancer xenografts in nude mice, Experiment 2
# Protocol: as §1
# Experiment 2 was similar to Experiment 1. Experiment 2 was started when PC-3 tumors had grown to approximately 50 mm^3 in volume. At this time, the animals were divided into 5 experimental groups with 8 animals in each group, and received single daily injections for 14 days as follows: 1. Control (vehicle solution); 2. JMR-132 (10 μg/day s.c.); 3. Peptide 1109 (5 μg/day s.c.); 4. Peptide 11109 (5 μg/day s.c.); 5. Peptide 11109 (2 μg/day s.c.). Further details of Experiment 2 are the same as for Experiment 1
# [3] = system: H-460 human non-small cell lung cancer; assay: H-460 human non-SCLC xenografts in nude mice, Experiment 1; conditions: 10 μg/day s.c., 28 days; means±S.E.
# Protocol: Male nude mice were implanted s.c. with 3 mm^3 pieces of H-460 human non-SCLC tumor tissue on both flanks. When tumors had grown to a mean volume of approximately 90 mm^3, the mice were randomly assigned into 4 experimental groups with 10 animals in each group and received single daily injections for 28 days as follows: 1. Control (vehicle solution); 2. JMR-132 (10 μg/day s.c.); 3. Peptide 1109 (10 μg/day s.c.); 4. Peptide 11111 (10 μg/day s.c.). Tumor volumes were measured once a week. The experiment was ended on day 28 by sacrificing the mice under Isoflurane anesthesia. Resulting tumors were cleaned, weighed, and snap-frozen until further analyses. Statistical analyses of the measurement results were done by two-tailed t-test, p<0.05 being considered significant. Data are presented as the means±S.E.
# [4] = system: MDA-MB-231 human estrogen independent breast cancer; assay: MDA-MB-231 human estrogen independent breast cancer xenografts in nude mice; conditions: 5 μg/day s.c., 28 days
# Protocol: Female nude mice were xenografted s.c. with MDA-MB-231 tumor tissue from donor animals. When tumors had grown to a mean volume of approximately 50 mm^3, the mice were randomly assigned into 2 experimental groups with 10 animals in each group and received single daily injections for 28 days as follows: 1. Control (vehicle solution); 2. Peptide 1109 (5 μg/day s.c.). Tumor volumes were measured once a week. The experiment was ended on day 28 by sacrificing the mice under Isoflurane anesthesia. Resulting tumors were cleaned, weighed, and snap-frozen until further analyses. Statistical analyses of the measurement results were done by two-tailed t-test, p<0.05 being considered significant.
# [5] = system: NCI-N87 human gastric cancer; assay: NCI-N87 human gastric cancer xenografts in nude mice; conditions: 10 μg/day s.c.
# Protocol: NCI-N87 cancers were transplanted s.c. into both flank areas of 30 female nude mice. The mice were randomly assigned into 4 experimental groups with 6 to 9 animals in each group and received single daily injections for 77 days as follows: 1. Control (vehicle solution); 2. JMR-132 (10 μg/day s.c.); 3. Peptide 1109 (10 μg/day s.c.); 4. Peptide 11479 (10 μg/day s.c.). Tumor volumes were measured once a week. The experiment was ended on day 77 by sacrificing the mice under Isoflurane anesthesia. Resulting tumors were cleaned, weighed, and snap-frozen until further analyses. Statistical analyses of the measurement results were done by two-tailed t-test, p<0.05 being considered significant. Data are presented as the means±S.E.
# [6] = system: SK-Hep-1 human hepatocellular cancer; assay: SK-Hep-1 human hepatocellular cancer xenografts in nude mice; conditions: for Tumor volume (mm^3) on day 135: means±S.E.; for Tumor weights (mg): tumors removed at autopsy
# Protocol: SK-Hep-1 cancers were transplanted s.c. into both flank areas of 66 female nude mice, and allowed to grow for 47 days before starting the treatment with GH-RH antagonists. The mice were randomly assigned into 4 experimental groups with 8 animals in each group and received single daily injections for 135 days as follows: 1. Control (vehicle solution); 2. JMR-132 (10 μg/day s.c.); 3. Peptide 1109 (5 μg/day s.c.); 4. Peptide 1109 (10 μg/day s.c.). Tumor volumes were measured once a week. The experiment was ended on day 135 by sacrificing the mice under Isoflurane anesthesia. Resulting tumors were cleaned, weighed, and snap-frozen until further analyses. Statistical analyses of the measurement results were done by two-tailed t-test, p<0.05 being considered significant. Data are presented as the means±S.E.
substance,measurement,setting,value
"[PhAc^0-Tyr^1, D-Arg^2, Cpa^6, Ala^8, Har^9, Tyr(Me)^10, His^11, Abu^15, Glu^17, His^20, Nle^27, D-Arg^28, Har^29]hGH-RH(1-29)NH2 [Peptide 1109]",Tumor growth after 5 weeks (%),[1],1502 ± 405%
same,Tumor growth after 2 weeks (%),"[2]; 5 μg/day s.c., 14 days",311%
same,Inhibition of PC-3 tumor growth compared with reference peptide JMR-132,"[2]; Peptide 1109 5 μg/day, Peptide 11109 5 and 2 μg/day, JMR-132 10 μg/day, 14 days",inhibited the growth of PC-3 tumors more potently than reference peptide JMR-132
same,Inhibition (%),"[2]; tumor growth after 2 weeks, 5 μg/day s.c.",56.58%
same,Tumor growth after 4 weeks (%),[3],1042 ± 181%
same,Inhibition of the growth of MDA-MB-231 human breast cancers,[4],about 75%
same,Number of regressing tumors,[5]; 77 days,6
same,Tumor growth after 77 days (%),"[5]; 77 days, means±S.E.",225 ± 59 %
same,Tumor weights,"[5]; day 77, means±S.E.",170 ± 52 mg
same,Tumor doubling time,[5]; calculated without the regressing tumors,93.6 ± 30.7 days
same,Tumors with total regression,"[6]; 5 μg/day s.c., 135 days",5
same,Tumor volume (mm^3) on day 135,"[6]; 5 μg/day s.c., 135 days",271 ± 98 mm^3
same,Tumor weights (mg),[6]; 5 μg/day s.c.,565 ± 115 (6) mg
same,Inhibition of SK-Hep-1 hepatic cancer growth compared with reference peptide JMR-132,"[6]; 5 μg/day vs JMR-132 10 μg/day, 135 days",more potently inhibited the growth of SK-Hep-1 hepatic cancers than the reference peptide JMR-132
same,Tumors with total regression,"[6]; 10 μg/day s.c., 135 days",7
same,Tumor volume (mm^3) on day 135,"[6]; 10 μg/day s.c., 135 days",200 ± 123* mm^3
same,Tumor weights (mg),[6]; 10 μg/day s.c.,605 ± 281 (4) mg
